In patent publication US8450359B2, “Polymer-supported photosensitizers for the generation of singlet oxygen” (The Queen's University of Belfast, priority 2006, dated 2013):
Where “and” joins values, the source holds several entries; their conditions need not be identical. Identical values can stand only once. Like-named read-outs stand apart in the source and are kept apart here.

Experiments:
[1] = Transient absorbance (triplet lifetime) measurements; assay type: physicochemical
Description: For the transient absorption and singlet oxygen studies, the second harmonic output from a Q-switched Nd:YAG laser was used as the excitation source and the sample was mounted at […] to the excitation beam. A pulse energy of 1 mJ was used for the measurements to avoid burning the sample. For transient absorption measurements, light from a xenon arc lamp (Applied Photophysics Ltd., 150 W) traveling at 90° to the excitation beam was directed through the sample and into a monochromator (Applied Photophysics Ltd., 1200 gr/mm grating.) fitted with an IP28 photomultiplier detector connected to a sampling oscilloscope (Tektronix TDS 3032). A 532 nm holographic notch filter (Kaiser Optical Systems Inc.) was mounted in front of the monoochromator entrance slit to reduce the effect of laser scatter on the signal. Processing of the data was carried out using SigmaPlot for Windows (Version 8.0).
Transient absorbance difference (ΔA) measurements were carried out under oxygen-bubbled conditions and after degassing by nitrogen-bubbling for 20 minutes. […] However, N2 bubbling was used in the present studies as freeze-pump-thaw was inappropriate for the polymer samples.

Pseudomonas aeruginosa = conditions: for dark activity: intense light series, dark control; for time to activity in light: intense light
Description: (§1) Studies were performed on the photosensitising activity of porphyrin solutions against Staphylococcus epidermidis, Pseudomonas aeruginosa and Proteus mirabilis as these organisms have been isolated from culture-positive cases of infectious endophthalmitis. Studies were performed by adding a porphyrin solution to a culture of the test organism, exposing this mixture to daylight or to a more intense light source comprising 4×250 W halogen bulbs, and then taking a 1 mL aliquot at certain times to determine the viable count.
(§2) 10 mcg/mL solutions of the three porphyrins were investigated. Initially the solutions were made up at the desired concentration and then double filter sterilised.
(§3) Inocula of approximately 1×10^5 cfu/mL were utilised throughout the microbiological studies of porphyrin solutions. Activity was examined both in normal daylight conditions and using a more intense light source comprising 4×250 W halogen bulbs, cooling the temperature to around 32° C.
(§4) Unfiltered and double filter sterilised 10 mcg/mL solutions were used to examine the effect of double filtration on activity.

[2] = test system: Staphylococcus epidermidis; conditions: for time to dark activity: daylight / laboratory light series; for time to activity in the dark: intense light series; for time to activity on illumination: intense light
Description: as §1, §2, §3, §4

Proteus mirabilis = conditions: for reduction in growth / viable count: 24 hour study, after 24 hours; for reduction in viable count: more intense light
Description: as §1, §2, §3, §4

[3] = D2O, single exponential decay following the rapid component
Description: The ^1O2 detection system was a liquid-nitrogen-cooled Indium Gallium Arsenide (InGaAs) detector (Judson Technologies Inc, Montgomeryville, Pa., type J22D-M204-R01M-60-1.7) with a 1 mm^2 active area. The detector output was amplified using a Judson PA9 pre-amplifier and collected using a Tektronix TDS 3032 oscilloscope. To obtain acceptable signal-to-noise ratios 512 decays were summed for each reading. To minimise the effect of any inhomogeneity in the sample, readings from 8 different points were averaged, The singlet oxygen emission at 1270 nm was separated from the 1064 nm fundamental laser emission and other spurious emissions by use of a 1200 nm long pass filter (LP1200) and a 1292 nm band pass filter (BPO-1292-80), both supplied by Spectrogon UK Ltd.
Using this approach, the polymers prepared were pre-wetted in buffer prepared with D2O and dipped in porphyrin solutions also prepared from D2O.

[4] = in solution; cited from earlier work
[5] = one hour study, double filter sterilised solution
[6] = one hour study, unfiltered 10 mcg/mL solution
[7] = one hour study, filtered solution
[8] = one hour study, daylight / laboratory light, unfiltered solution
[9] = one hour study, unfiltered solution

| Compound | τ1/μs ([1]; N2 bubbled) | τ1/μs ([1]; O2 bubbled) | dark activity (Pseudomonas aeruginosa; one hour study) | time to activity in light (Pseudomonas aeruginosa; [5]) | time to activity in light (Pseudomonas aeruginosa; [6]) | time to dark activity [2, 7] | time to activity (no growth) in light [2, 8] | time to activity in the dark [2, 7] | time to activity in the dark [2, 9] | time to activity on illumination [2, 7] | time to activity on illumination [2, 9] | reduction in growth / viable count (Proteus mirabilis; daylight) | reduction in viable count (Proteus mirabilis; by 5 hours) | other results |
| --- | --- | --- | --- | --- | --- | --- | --- | --- | --- | --- | --- | --- | --- | --- |
| C[n+]1ccc(-c2c3nc(c(-c4cc[n+](C)cc4)c4ccc([nH]4)c(-c4cc[n+](C)cc4)c4nc(c(-c5cc[n+](C)cc5)c5ccc2[nH]5)C=C4)C=C3)cc1.Cc1ccc(S(=O)(=O)[O-])cc1.Cc1ccc(S(=O)(=O)[O-])cc1.Cc1ccc(S(=O)(=O)[O-])cc1.Cc1ccc(S(=O)(=O)[O-])cc1 [TMPyP, tetra(4N-methylpyridyl)porphine tetratosylate salt] | 161 μs and 161.0 ± 4.51 μs | 0.436 ± 0.00062 μs | not active in the dark | ≤ 40 min | ≤ 40 min | ≤ 30 min | ≤ 10 min | 20 min | 10 min | ≤ 10 min | ≤ 10 min | 1 log cycle | three log cycle reduction | triplet lifetime, solution phase ([1]; under O2): 436 ns; photosensitising activity (Pseudomonas aeruginosa; 24 hour study, daylight, 10 mcg/mL solution, inoculum ca. 1×10^5 cfu/mL): no photosensitising activity; time to activity in light ([2]; one hour study, daylight / laboratory light, filtered solution): ≤ 10 min; 1O2 emission decay lifetime [3]: 62 μs |
| C[N+](C)(C)c1ccc(-c2c3nc(c(-c4ccc([N+](C)(C)C)cc4)c4ccc([nH]4)c(-c4ccc([N+](C)(C)C)cc4)c4nc(c(-c5ccc([N+](C)(C)C)cc5)c5ccc2[nH]5)C=C4)C=C3)cc1.[Cl-].[Cl-].[Cl-].[Cl-] [TMAP, tetra(4N,N,N-trimethyl-anilinium)porphine tetrachloride] |  |  | some limited dark activity | ≤ 30 min | ≤ 30 min | not active in the dark | ≤ 10 min | ≤ 10 min | ≤ 10 min | ≤ 10 min | ≤ 10 min |  |  | reduction of growth (Pseudomonas aeruginosa; 24 hour study, daylight, at 24 hours): 1 log cycle; activity (Pseudomonas aeruginosa; one hour study, daylight): no activity; time to dark activity (no growth in dark control) ([2]; one hour study, daylight series, unfiltered solution, dark control): ≤ 10 min; reduction in viable count (Proteus mirabilis; in 3 hours): three log cycle reduction; activity (Proteus mirabilis; one hour study, daylight): no activity |
| Cl.Cl.O=S(=O)(O)c1ccc(-c2c3nc(c(-c4ccc(S(=O)(=O)O)cc4)c4ccc([nH]4)c(-c4ccc(S(=O)(=O)O)cc4)c4nc(c(-c5ccc(S(=O)(=O)O)cc5)c5ccc2[nH]5)C=C4)C=C3)cc1 [TPPS, tetra(4-sulfonatophenyl)-porphine dihydrochloride] | 227.5 ± 6.1 μs | 0.760 ± 0.0023 μs |  |  |  |  |  |  |  | ≤ 50 min | ≤ 40 min | no reduction in viable count | did not show any photosensitising effect | reduction in the viable count (Pseudomonas aeruginosa; more intense source, by 5 hours illumination): one log cycle reduction; time to successful photoinactivation, complete kill ([2]; 24 hour study, daylight): 24 h; φ(1O2) [4]: 0.6717 |
